In patent US7947726B2, “Non-steroidal ligands for the glucocorticoid receptor, and compositions thereof” (The Regents of the University of California, priority 2002, dated 2011):

Molecular target: T1, PR (Homo sapiens, UniProt P06401)
T1 sequence (P06401 1-933): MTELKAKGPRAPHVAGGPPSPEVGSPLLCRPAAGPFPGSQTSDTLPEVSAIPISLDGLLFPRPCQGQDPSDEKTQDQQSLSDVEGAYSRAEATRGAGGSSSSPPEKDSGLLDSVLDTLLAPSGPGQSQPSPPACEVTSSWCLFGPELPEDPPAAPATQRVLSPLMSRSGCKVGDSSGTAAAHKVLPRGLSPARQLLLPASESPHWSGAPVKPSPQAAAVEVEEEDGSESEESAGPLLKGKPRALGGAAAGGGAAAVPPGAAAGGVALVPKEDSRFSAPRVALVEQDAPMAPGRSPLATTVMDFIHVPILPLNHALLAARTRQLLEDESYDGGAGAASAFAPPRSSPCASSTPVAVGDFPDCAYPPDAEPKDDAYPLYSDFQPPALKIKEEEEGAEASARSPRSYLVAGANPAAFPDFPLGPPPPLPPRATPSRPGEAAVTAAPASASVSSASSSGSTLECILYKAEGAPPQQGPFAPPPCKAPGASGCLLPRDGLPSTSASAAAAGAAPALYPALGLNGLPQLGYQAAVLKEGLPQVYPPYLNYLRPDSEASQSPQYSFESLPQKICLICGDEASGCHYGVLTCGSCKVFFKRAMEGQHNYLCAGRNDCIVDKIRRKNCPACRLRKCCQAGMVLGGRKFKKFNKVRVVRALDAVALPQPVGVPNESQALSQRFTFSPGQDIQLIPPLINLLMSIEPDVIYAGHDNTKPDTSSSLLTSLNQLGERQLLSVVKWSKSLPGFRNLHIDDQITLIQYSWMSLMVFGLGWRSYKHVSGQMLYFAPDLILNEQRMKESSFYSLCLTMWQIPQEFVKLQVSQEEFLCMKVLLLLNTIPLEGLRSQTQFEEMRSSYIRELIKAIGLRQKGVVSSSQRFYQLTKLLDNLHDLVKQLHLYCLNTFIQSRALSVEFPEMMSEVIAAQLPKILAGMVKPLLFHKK
Test: PR activation (max fold activation)
Type: cell-based
Conditions: Table 4

PR max fold activation: 255 ± 72
Structure (SMILES): CC(=O)[C@H]1CC[C@H]2[C@@H]3CCC4=CC(=O)CC[C@]4(C)[C@H]3CC[C@]12C [Progesterone, reference compound]
